Data on three compounds can be found in ChEMBL document CHEMBL5143574, “Unraveling the anti-virulence potential and antifungal efficacy of 5-aminotetrazoles using the zebrafish model of disseminated candidiasis” (Eur J Med Chem, 2022).

In series [1] the test system is Candida albicans. The series can be described thus: Anti-virulence activity against Candida albicans SC5314 assessed as inhibition of fungal filamentation by measuring reduction of hyphae formation in YPS medium at 1.3 uM incubated for 3 to 5 days by stereomicroscopic analysis. The format is functional, organism-based. The settings on record: time 3-5 day.
Series [2] deals with Candida albicans. The series can be described thus: Anti-virulence activity against Candida albicans SC5314 assessed as inhibition of fungal filamentation by measuring reduction in hyphae formation in Lee medium upto 10 uM incubated for 3 to 5 days by stereomicroscopic analysis. Type of series: functional, organism-based. The settings on record: time 3-5 day.
Series [3] concerns Candida albicans. The series is described as follows: Anti-virulence activity against 53-75 RFP expressing cells of Candida albicans M137 in hind brain of zebra fish embryo disseminated candidiasis model assessed as inhibition of fungal filamentation by measuring reduction of hyphae formation in the hind brain at 10 uM treated at 1 hr post-infection and measured on day 4 post infection by fluorescence microscopy. The format is functional. The settings on record: M137, 96 h, time 4 day.

In series [4] the test system is Candida albicans. The series is described as follows: Anti-virulence activity against Candida albicans SC5314 assessed as inhibition of fungal filamentation by measuring reduction of hyphae formation in Spider medium at 1.3 uM incubated for 3 to 5 days by stereomicroscopic analysis. The format is functional, organism-based. The settings on record: time 3-5 day.
In series [5] the test system is Candida albicans. The series is described as follows: Anti-virulence activity against Candida albicans SC5314 assessed as inhibition of fungal filamentation by measuring reduction in hyphae formation in SLAD medium upto 10 uM incubated for 3 to 5 days by stereomicroscopic analysis. The format is functional, organism-based. The settings on record: time 3-5 day.
Series [6] concerns Candida albicans. The series can be described thus: Anti-virulence activity against Candida albicans SC5314 assessed as inhibition of fungal filamentation by measuring reduction in hyphae formation in Spider medium upto 10 uM incubated for 3 to 5 days by stereomicroscopic analysis. The format is functional, organism-based. The settings on record: time 3-5 day.
The test system of series [7] is Candida albicans. The series is described as follows: Antifungal activity against Candida albicans SC5314 assessed as inhibition of fungal growth incubated for 24 hrs by broth microdilution assay. Type of series: functional.
The test system of series [8] is Candida albicans. The series is described as follows: Anti-virulence activity against Candida albicans SC5314 assessed as inhibition of fungal filamentation by measuring reduction in hyphae formation in YPS plus uridine medium upto 10 uM incubated for 3 to 5 days by stereomicroscopic analysis. Type of series: functional, organism-based. The settings on record: time 3-5 day.

Series [9] relates to Candida albicans. The series is described as follows: Anti-virulence activity against Candida albicans SC5314 assessed as inhibition of fungal filamentation by measuring reduction of hyphae formation in RPMI medium upto 10 uM incubated for 3 to 5 days by stereomicroscopic analysis. The settings on record: time 3-5 day. Type of series: functional, organism-based.
The subject of series [10] is Candida albicans. The series is described as follows: Anti-virulence activity against Candida albicans SC5314 assessed as inhibition of fungal filamentation by measuring reduction of hyphae formation in YPS plus uridine medium at 1.3 uM incubated for 3 to 5 days by stereomicroscopic analysis. The format is functional, organism-based. The settings on record: time 3-5 day.

For series [11], the system named is Candida albicans. The series can be described thus: Anti-virulence activity against Candida albicans SC5314 assessed as inhibition of fungal filamentation by measuring reduction of hyphae formation in RPMI medium at 1.3 uM incubated for 3 to 5 days by stereomicroscopic analysis. The settings on record: time 3-5 day. Type of series: functional, organism-based.

The test system of series [12] is Candida albicans. The series is described as follows: Anti-virulence activity against Candida albicans SC5314 assessed as inhibition of fungal filamentation by measuring reduction in hyphae formation in YPS medium upto 10 uM incubated for 3 to 5 days by stereomicroscopic analysis. The format is functional, organism-based. The settings on record: time 3-5 day.
Series [13] concerns Candida albicans. The series is described as follows: Anti-virulence activity against Candida albicans SC5314 assessed as inhibition of fungal filamentation by measuring reduction of hyphae formation in GlcNAc medium at 1.3 uM incubated for 3 to 5 days by stereomicroscopic analysis. The format is functional, organism-based. The settings on record: time 3-5 day.
Series [14] is described as follows: Toxicity in zebrafish embryos assessed as mortality treated at 6 hpf and measured at 120 hpf by stereomicroscopic analysis. Set-up: species or system Danio rerio. The settings on record: in vivo.
In series [15] the test system is Candida albicans. The series is described as follows: Anti-virulence activity against Candida albicans SC5314 assessed as inhibition of fungal filamentation by measuring reduction of hyphae formation in SLAD medium at 1.3 uM incubated for 3 to 5 days by stereomicroscopic analysis. The settings on record: time 3-5 day. The format is functional, organism-based.
In series [16] the test system is Candida albicans. The series is described as follows: Anti-virulence activity against Candida albicans SC5314 assessed as inhibition of fungal filamentation by measuring reduction of hyphae formation in Lee medium at 1.3 uM incubated for 3 to 5 days by stereomicroscopic analysis. Type of series: functional, organism-based. The settings on record: time 3-5 day.
The subject of series [17] is Candida albicans. The series is described as follows: Anti-virulence activity against Candida albicans SC5314 assessed as inhibition of fungal filamentation by measuring reduction in hyphae formation in GlcNAc medium upto 10 uM incubated for 3 to 5 days by stereomicroscopic analysis. Type of series: functional, organism-based. The settings on record: time 3-5 day.
Series [18] can be described thus: Toxicity against zebrafish embryo infected with 53-75 RFP expressing cells of Candida albicans M137 assessed as mortality at 2.5 to 10 uM treated at 1 hr post-infection and measured on day 4 post-infection. Set-up: species or system Danio rerio. The settings on record: 96 h, dose 2.5-10 µM, time 4 day.
Series [19] has as its system Candida albicans. The series is described as follows: Anti-virulence activity against 53-75 RFP expressing cells of Candida albicans M137 in hind brain of zebra fish embryo disseminated candidiasis model assessed as inhibition of fungal filamentation by measuring reduction of hyphae formation in the hind brain at 2.5 to 10 uM treated at 1 hr post-infection and measured on day 4 post infection by fluorescence microscopy. The format is functional. Set-up: scale not given: the % may be the effect or the level left. The settings on record: dose 2.5-10 µM, time 4 day.

Series [20] has as its system Candida albicans. The series is described as follows: Anti-virulence activity against Candida albicans SC5314 assessed as inhibition of fungal filamentation by measuring reduction of hyphae formation in SLAD medium at 2.5 uM incubated for 3 to 5 days by stereomicroscopic analysis. Type of series: functional. The settings on record: time 3-5 day.
The subject of series [21] is Candida albicans. The series can be described thus: Anti-virulence activity against 120-140 RFP expressing cells of Candida albicans M137 infected in hind brain of zebra fish embryo disseminated candidiasis model assessed as embryo mortality at 10 uM measured at 120 hpf. Type of series: functional.
The test system of series [22] is Candida albicans. The series is described as follows: Anti-virulence activity 53-75 RFP expressing cells of Candida albicans M137 in hind brain of zebra fish embryo disseminated candidiasis model assessed as reduction in mortality by measuring embryo survival rate treated at 1 hr post-infection and measured at 48 hrs post infection (reference value: 40%). The format is functional.

Series [23] deals with Candida albicans. The series is described as follows: Anti-virulence activity against Candida albicans SC5314 assessed as inhibition of fungal filamentation by measuring reduction of hyphae formation in YPS medium at 2.5 uM incubated for 3 to 5 days by stereomicroscopic analysis. The settings on record: time 3-5 day. The format is functional.
Series [24] in a line: Reduction of nystatin resistance against Candida albicans SC5314 assessed as nystatin MIC at 5 to 10 uM measured after consecutive treatment with nystatin for 12 days. The format is functional. The settings on record: SC5314, 288 h, dose 5-10 µM.
The nature of series [25]: Toxicity in zebrafish embryos assessed as toxic responses at 200 uM treated at 6 hpf and measured at 120 hpf by stereomicroscopic analysis. Set-up: species or system Danio rerio. The settings on record: in vivo, 24 h.
In series [26] the test system is Candida albicans. The series can be described thus: Anti-virulence activity against 53-75 RFP expressing cells of Candida albicans M137 in hind brain of zebra fish embryo disseminated candidiasis model assessed as reduction in mortality by measuring embryo survival rate treated at 1 hr post-infection and measured on day 4 post infection (reference value: 10%). Type of series: functional. The settings on record: time 4 day.

Series [27] deals with Candida albicans. The series can be described thus: Indifferent antifungal activity against Candida albicans SC5314 assessed as fractional inhibitory concentration index incubated for 24 hrs in RPMI medium in presence of nystatin by checkerboard assay. Type of series: functional.
Series [28] concerns Candida albicans. The series can be described thus: Anti-virulence activity against 120-140 RFP expressing cells of Candida albicans M137 infected in hind brain of zebra fish embryo disseminated candidiasis model assessed as embryo survival rate at 10 uM in presence of 0.25 ug/ml nystatin measured at 120 hpf. Type of series: functional.
The test system of series [29] is Candida albicans. The series is described as follows: Anti-virulence activity against 120-140 RFP expressing cells of Candida albicans M137 infected in hind brain of zebra fish embryo disseminated candidiasis model assessed as embryo survival rate upto 10 uM in presence of 0.13 to 1 ug/ml nystatin measured at 120 hpf. The format is functional. The settings on record: up to 10 µM.

Series [30] has as its system Candida albicans. The series can be described thus: Anti-virulence activity against Candida albicans SC5314 assessed as inhibition of fungal filamentation by measuring reduction of hyphae formation in GlcNAc medium at 2.5 uM incubated for 3 to 5 days by stereomicroscopic analysis. Type of series: functional. The settings on record: time 3-5 day.
In series [31] the test system is Candida albicans. The series is described as follows: Anti-virulence activity against 120-140 RFP expressing cells of Candida albicans M137 expressing infected in hind brain of zebra fish embryo disseminated candidiasis model assessed as inhibition of fungal filamentation by measuring reduction of hyphae formation at 10 uM in presence of 1 ug/ml nystatin measured at 120 hpf. Type of series: functional. Set-up: scale not given: the % may be the effect or the level left.

Series [32] concerns Candida albicans. The series is described as follows: Anti-virulence activity against 120-140 RFP expressing cells of Candida albicans M137 infected in hind brain of zebra fish embryo disseminated candidiasis model assessed as inhibition of fungal filamentation by measuring reduction of fungal hyphae formation at 10 uM in presence of 0.25 ug/ml nystatin measured at 120 hpf. Type of series: functional.

Series [33] deals with Candida albicans. The series can be described thus: Anti-virulence activity against Candida albicans SC5314 assessed as inhibition of fungal filamentation by measuring reduction of hyphae formation in Spider medium at 2.5 uM incubated for 3 to 5 days by stereomicroscopic analysis. Type of series: functional. The settings on record: time 3-5 day.
The subject of series [34] is Candida albicans. The series can be described thus: Anti-virulence activity against 53-75 RFP expressing cells of Candida albicans M137 in hind brain of zebra fish embryo disseminated candidiasis model assessed as reduction in mortality by measuring embryo survival rate treated at 1 hr post-infection and measured on day 4 post infection relative to control. The format is functional. The settings on record: time 4 day.

Series [35] is described as follows: Cardiotoxicity in zebrafish embryos assessed as pericardial edema at 0.25 uM treated at 6 hpf and measured at 120 hpf by stereomicroscopic analysis. The format is toxicity, Danio rerio.
Series [36] in a line: Hepatotoxicity in zebrafish embryos assessed as liver failure by measuring necrotic and decreased liver with non-resorbed yolk at 0.25 uM treated at 6 hpf and measured at 120 hpf by stereomicroscopic analysis. Type of series: toxicity, tissue-based, Danio rerio. The settings on record: in vivo.

Activity calls are given as the source filed them. Where only a bound is given, the exact number is not on record here.

For the compound `c1ccc(Nc2nnnn2CCC23CC4CC(CC(C4)C2)C3)cc1`, the result in series [1], in [2], in [4], in [5], in [6] and in series [8] was Active. Also, the result in series [9], in series [10], in [11], in series [12], in [13] and in [15] was Active. Further, the outcome in series [16] and in series [17] was Active. Besides, the inhibition in vivo (commonly the change of the read-out against control, counted positive when it falls) at 10 µM in series [3] turned out to be 100%. In addition, the MIC – broadly, the smallest concentration in the dilution series that meets the test's criterion for growth inhibition – in series [7] was above 200 µM. Moreover, the LC50 – broadly, the concentration lethal to half of the exposed cells or organisms – in series [14] was above 200 µM. Further, in [18], the Activity result is “Non-Toxic”.
For `Nc1nnnn1CCC12CC3CC(CC(C3)C1)C2`, the Activity in [19] is listed as 100%; in series [25] it was “Non-Toxic”; in series [18] it was “Non-Toxic”; in series [31], 100%. In addition, the result in series [1], in series [2], in series [4], in series [5], in [6] and in series [8] was Active. Besides, the outcome in [9], in series [10], in series [11], in series [12], in series [13] and in series [15] was Active. Further, the result in series [16] and in [17] was Active. Further, the inhibition at 2.5 µM in series [20], in [23], in series [30] and in series [33] was 100% each time. The mortality (as a rule, the share of the test organisms that died) at 10 µM in series [21] amounted to 80%. Further, the Survival in [22] is 50%; in series [26], 70%; in series [29] it was “<=80%”. For the same compound, the values for the MIC in series [24] and in series [7] were 1 µg/mL and above 200 µM, respectively. Further, in [27], the “fractional inhibitory concentration index (FICI)” value was 1. Besides, the survival at 10 µM in [28] is at most 30%. For the same compound, in series [14], the LC50 is above 200 µM. The inhibition in vivo at 10 µM in series [32] is at most 30%. The “fold change (FC)” value in series [34] was determined as 7.
As to `CCC(C)n1ncn(-c2ccc(N3CCN(c4ccc(OCC5COC(Cn6cncn6)(c6ccc(Cl)cc6Cl)O5)cc4)CC3)cc2)c1=O` (stereo not drawn) [ITRACONAZOLE], the Activity entry in series [35] and in series [36] was “Toxic” throughout.
